Laboratory results from PMC5562545 (Journal of molecular biology, 2017).

Target: WT PA channel (Bacillus anthracis, UniProt P13423)
Assay type: biochemical

WT PA channel, sequence (P13423 197-764 limits assumed): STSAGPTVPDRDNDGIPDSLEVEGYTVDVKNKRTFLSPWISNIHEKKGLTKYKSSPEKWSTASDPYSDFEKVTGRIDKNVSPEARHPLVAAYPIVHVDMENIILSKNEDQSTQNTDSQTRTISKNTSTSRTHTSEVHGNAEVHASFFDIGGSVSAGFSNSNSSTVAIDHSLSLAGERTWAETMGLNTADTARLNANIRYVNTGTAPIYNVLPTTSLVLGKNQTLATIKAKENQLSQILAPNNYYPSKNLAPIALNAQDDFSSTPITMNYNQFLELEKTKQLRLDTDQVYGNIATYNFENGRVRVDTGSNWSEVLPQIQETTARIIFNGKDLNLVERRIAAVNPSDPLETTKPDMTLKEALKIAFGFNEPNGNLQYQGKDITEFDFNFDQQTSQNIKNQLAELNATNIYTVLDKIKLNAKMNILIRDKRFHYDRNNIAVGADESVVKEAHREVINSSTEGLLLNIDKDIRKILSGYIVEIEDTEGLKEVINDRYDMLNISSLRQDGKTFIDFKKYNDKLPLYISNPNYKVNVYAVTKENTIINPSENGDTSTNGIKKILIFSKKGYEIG

Substance	duration of the I2/B oscillation among guest–host peptides	oscillation between conductance states during translocation	relative rate of dissociation to the cis side (in words) (pH 5.6)	translocation (in words) (pH 5.6)	translocation faster than D,L-Trp and D-Trp peptides (pH 5.6) [fold]	translocation faster than the HBS stapled peptide (pH 5.6)	dissociation to the cis side slower than L-Trp (pH 5.6)	translocation slower than L-Trp (pH 5.6)
L-Trp	longest durations	exhibited an oscillation between the I2 and B	dissociated the fastest	translocated the fastest	10	~ 100 fold		
D-Trp			dissociated the slowest				~ 20 fold	~ 10 fold
